Values quoted from earlier work as cited in patent US6667408B2, “Process for preparing cyclic polyethers” (Japan Science and Technology Corporation, priority 2000, dated 2003).

Test system: mice
Conditions: i.p.

C=CC/C=C\C=C/[C@H]1O[C@H]2C[C@H]3O[C@H]4CC[C@H]5O[C@H]6C[C@@]7(C)O[C@@]8(C)[C@@H](O)C[C@H](CCCO)O[C@@H]8C[C@@H]7O[C@@H]6C[C@@H]5O[C@]4(C)C[C@]3(C)O[C@@H]2C=C[C@]1(C)O [gambierol]
LD50: 50 µg/kg
